Target: H1047R PIK3CA enzyme (Homo sapiens, UniProt P42336, H1047R)
Assay: ADP-Glo Biochemical PIK3CA Kinase Assay

Chain of H1047R PIK3CA enzyme (P42336 whole entry H1047R): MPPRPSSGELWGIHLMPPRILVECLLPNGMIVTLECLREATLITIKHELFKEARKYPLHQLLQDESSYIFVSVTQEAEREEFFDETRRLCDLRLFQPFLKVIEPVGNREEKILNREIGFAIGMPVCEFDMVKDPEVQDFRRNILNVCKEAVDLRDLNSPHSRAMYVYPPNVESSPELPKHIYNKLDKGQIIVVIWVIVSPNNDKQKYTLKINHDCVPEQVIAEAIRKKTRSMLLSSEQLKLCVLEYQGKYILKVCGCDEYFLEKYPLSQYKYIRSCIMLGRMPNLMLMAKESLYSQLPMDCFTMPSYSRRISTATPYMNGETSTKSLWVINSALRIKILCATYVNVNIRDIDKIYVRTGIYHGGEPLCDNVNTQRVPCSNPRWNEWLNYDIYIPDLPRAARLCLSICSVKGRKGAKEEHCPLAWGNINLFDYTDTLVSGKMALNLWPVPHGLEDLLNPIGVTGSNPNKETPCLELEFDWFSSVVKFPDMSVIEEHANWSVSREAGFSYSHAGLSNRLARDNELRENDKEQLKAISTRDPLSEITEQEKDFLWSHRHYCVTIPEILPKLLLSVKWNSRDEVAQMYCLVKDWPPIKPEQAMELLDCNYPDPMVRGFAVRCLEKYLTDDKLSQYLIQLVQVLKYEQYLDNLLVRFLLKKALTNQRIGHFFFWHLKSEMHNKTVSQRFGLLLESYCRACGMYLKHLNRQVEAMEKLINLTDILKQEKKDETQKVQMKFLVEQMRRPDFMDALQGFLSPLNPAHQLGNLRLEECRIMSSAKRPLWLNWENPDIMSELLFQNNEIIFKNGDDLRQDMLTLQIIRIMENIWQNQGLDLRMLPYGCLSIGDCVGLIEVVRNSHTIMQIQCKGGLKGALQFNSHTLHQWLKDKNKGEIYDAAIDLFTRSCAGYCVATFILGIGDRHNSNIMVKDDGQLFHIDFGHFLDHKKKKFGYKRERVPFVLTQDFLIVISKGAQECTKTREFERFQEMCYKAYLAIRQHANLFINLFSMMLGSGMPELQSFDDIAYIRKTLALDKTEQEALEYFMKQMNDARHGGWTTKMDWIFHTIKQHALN
Chain of H1047R PIK3CA enzyme (P27986 whole entry partner): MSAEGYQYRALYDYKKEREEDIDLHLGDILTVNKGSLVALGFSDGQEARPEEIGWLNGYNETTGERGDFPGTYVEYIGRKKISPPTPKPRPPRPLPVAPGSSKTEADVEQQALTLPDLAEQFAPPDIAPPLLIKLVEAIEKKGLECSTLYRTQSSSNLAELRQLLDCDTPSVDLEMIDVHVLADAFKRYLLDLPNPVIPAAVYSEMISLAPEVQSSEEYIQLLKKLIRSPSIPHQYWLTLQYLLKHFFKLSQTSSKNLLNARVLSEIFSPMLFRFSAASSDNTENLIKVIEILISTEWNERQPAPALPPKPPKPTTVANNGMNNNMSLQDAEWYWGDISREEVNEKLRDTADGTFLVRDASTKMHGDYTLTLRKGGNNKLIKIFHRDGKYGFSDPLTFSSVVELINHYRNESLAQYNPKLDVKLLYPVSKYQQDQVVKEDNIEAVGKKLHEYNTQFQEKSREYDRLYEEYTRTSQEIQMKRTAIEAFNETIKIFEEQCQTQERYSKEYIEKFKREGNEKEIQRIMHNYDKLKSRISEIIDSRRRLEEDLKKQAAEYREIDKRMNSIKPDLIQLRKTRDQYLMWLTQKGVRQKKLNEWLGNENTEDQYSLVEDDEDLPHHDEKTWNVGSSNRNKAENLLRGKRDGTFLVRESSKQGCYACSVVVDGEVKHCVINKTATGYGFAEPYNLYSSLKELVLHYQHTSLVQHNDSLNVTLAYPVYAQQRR

Row | Structure (SMILES) | IC50 [nM]
1 | O=C(Nc1cc(-c2ccc3ocnc3c2)cc2c1C(c1cc(F)ccc1Cl)NC2=O)c1cc(F)cc(C(F)(F)F)c1 (stereo not shown) [Compound I-1415] | ≤ 100
2 | O=C(Nc1cccc2c1C(c1ccc(Br)cc1Cl)NC2=O)c1cc(F)cc(C(F)(F)F)c1 (stereo not shown) [Compound I-409] | 1000 to 10000
3 | O=C(Nc1cc(Cl)nc2c1C(c1cc(F)ccc1Cl)NC2=O)c1cc(F)cc(C(F)(F)F)c1 (stereo not shown) [Compound I-545] | ≤ 100
4 | O=C(Nc1cc(NC2CCC2(F)F)nc2c1C(c1cc(F)ccc1Cl)NC2=O)c1cc(F)cc(C(F)(F)F)c1 (stereo not shown) [Compound I-532] | ≤ 100
5 | CCn1cc(-c2cc(NC(=O)c3cc(F)cc(C(F)(F)F)c3)c3c(c2)C(=O)N[C@@H]3c2cc(F)ccc2Cl)ccc1=O [Compound I-703] | 10000 to 100000
6 | Cc1ccccc1[C@@H]1NC(=O)c2nccc(NC(=O)N3CCc4ccc(F)cc43)c21 [Compound I-246] | 100 to 500
7 | O=C(Nc1cc(-c2ccc3ccnn3c2)cc2c1C(c1cc(F)ccc1Cl)NC2=O)c1cc(F)cc(C(F)(F)F)c1 (stereo not shown) [Compound I-1499] | ≤ 100
8 | O=C(Nc1cc(-c2ccc3ncnn3c2)nc2c1[C@H](c1cc(F)ccc1Cl)NC2=O)c1cc(F)cc(C(F)(F)F)c1 [Compound I-1229] | ≤ 100
9 | CNC(=O)c1cc(NC(=O)c2cc(F)cc(C(F)(F)F)c2)c2c(c1)C(=O)NC2c1ccccc1C (stereo not shown) [Compound I-156] | ≤ 100
10 | N#Cc1ccc2c(c1)CCCN2c1cc(NC(=O)c2cc(F)cc(C(F)(F)F)c2)c2c(c1)C(=O)NC2c1cc(F)ccc1Cl (stereo not shown) [Compound I-1262] | ≤ 100
11 | O=C1NC(c2cc(F)ccc2Cl)c2c(NC(=O)N3CCCC(F)(F)C3)cc(Br)cc21 (stereo not shown) [Compound I-544] | 1000 to 10000
12 | O=C(Nc1cc(Br)cc2c1C(c1cc(F)ccc1Cl)NC2=O)c1cc(F)cc(F)c1 (stereo not shown) [Compound I-468] | 100 to 500
13 | O=C(Nc1cc(N2CCn3ccnc3C2)cc2c1C(c1cc(F)ccc1Cl)NC2=O)c1cc(F)cc(C(F)(F)F)c1 (stereo not shown) [Compound I-1236] | ≤ 100
14 | O=C(Nc1cccc2c1C(c1cc(F)c(F)cc1C(F)F)NC2=O)c1cc(F)cc(Cl)c1 (stereo not shown) [Compound I-331] | 100 to 500
15 | O=C(NCCC(O)CO)c1cc(NC(=O)c2cc(F)cc(C(F)(F)F)c2)c2c(c1)C(=O)NC2c1cc(F)ccc1Cl (stereo not shown) [Compound I-1493] | ≤ 100
16 | O=C(Nc1cc(-c2ccc3ncnn3c2)cc2c1[C@H](c1cc(F)ccc1Cl)NC2=O)c1cc(F)c(F)c(Cl)c1 (stereo in doubt) [Compound I-1173] | ≤ 100
17 | O=C1NC(c2cc(F)ccc2Cl)c2c(NC(=O)c3cc(F)cc4cc[nH]c34)cc(Br)cc21 (stereo not shown) [Compound I-711] | ≤ 100
18 | O=C(Nc1cc(Br)cc2c(=O)[nH]n(-c3cc(F)ccc3Cl)c12)c1cc(F)cc(C(F)(F)F)c1 [Compound I-752] | 1000 to 10000
19 | Cn1ncnc1COc1cc(NC(=O)c2cc(F)cc(C(F)(F)F)c2)c2c(c1)C(=O)NC2c1cc(F)ccc1Cl (stereo not shown) [Compound I-1221] | ≤ 100
20 | O=C(Nc1cc(Br)cc2c1[C@H](c1ccc(F)cc1Cl)NC2=O)c1cc(F)cc(C(F)(F)F)c1 [Compound I-755] | 100 to 500

Row | Structure (SMILES) | IC50 [nM]
21 | CNC(=O)c1cc(NC(=O)c2nsc3ccccc23)c2c(c1)C(=O)NC2c1ccccc1C (stereo not shown) [Compound I-123] | ≤ 100
22 | O=C(Nc1cccc2c1[C@@H](c1cc(F)ccc1Cl)NC2=O)c1cc(F)cc(C(F)(F)F)c1 [Compound I-860] | 1000 to 10000
23 | N#CC1CN(c2cc(NC(=O)c3cc(F)cc(C(F)(F)F)c3)c3c(n2)C(=O)NC3c2cc(F)ccc2Cl)C1 (stereo not shown) [Compound I-443] | ≤ 100
24 | O=C(Nc1cc(C2CS(=O)(=O)C2)cc2c1C(c1cc(F)ccc1Cl)NC2=O)c1cc(F)cc(C(F)(F)F)c1 (stereo not shown) [Compound I-1196] | ≤ 100
25 | CC1(C(=O)Nc2cc(Br)cc3c2C(c2cc(F)ccc2Cl)NC3=O)CCCC(C(F)(F)F)C1 (mixture of isomers) [Compound I-1358] | 100 to 500
26 | Cc1ccccc1C1NC(=O)c2cccc(NC(=O)c3cnc(OCC(C)C)c(F)c3)c21 (stereo not shown) [Compound I-111] | 10000 to 100000
27 | O=C1NC(c2cc(F)ccc2Cl)c2c(NC(=O)C3CCCC(C(F)(F)F)C3)cc(Br)cc21 (mixture of isomers) [Compound I-1323] | 100 to 500
28 | COc1ccc2c(C(=O)Nc3cccc4c3C(c3ccccc3C)NC4=O)csc2c1 (stereo not shown) [Compound I-79] | 10000 to 100000
29 | NS(=O)(=O)CCNC(=O)c1cc(NC(=O)c2cc(F)cc(C(F)(F)F)c2)c2c(c1)C(=O)NC2c1cc(F)ccc1Cl (stereo not shown) [Compound I-1469] | ≤ 100
30 | CC(C)(O)c1cc(F)cc(C(=O)Nc2cccc3c2C(c2cc(F)ccc2Cl)NC3=O)c1 (stereo not shown) [Compound I-627] | 10000 to 100000
31 | O=C(Nc1cc(-c2cnn(-c3ncccn3)c2)cc2c1C(c1cc(F)ccc1Cl)NC2=O)c1cc(F)cc(C(F)(F)F)c1 (single isomer, unassigned) [Compound I-1554] | 1000 to 10000
32 | O=C(Nc1cc(-c2ccc(=O)n(C3CC3)c2)cc2c1C(c1cc(F)ccc1Cl)NC2=O)c1cc(F)cc(C(F)(F)F)c1 (stereo not shown) [Compound I-700] | ≤ 100
33 | N#Cc1ccccc1C1NC(=O)c2cccc(NC(=O)c3nsc4ccccc34)c21 (stereo not shown) [Compound I-197] | 1000 to 10000
34 | COc1ncc(-c2cc(NC(=O)c3cc(F)cc(C(F)(F)F)c3)c3c(c2)C(=O)NC3c2cc(F)ccc2Cl)cc1F (stereo not shown) [Compound I-1419] | ≤ 100
35 | CC(C)(CNC(=O)Nc1cc(Br)cc2c1C(c1cc(F)ccc1Cl)NC2=O)C1(O)CCC1 (stereo not shown) [Compound I-1507] | 10000 to 100000
36 | O=C1NCC(c2cc(NC(=O)c3cc(F)cc(C(F)(F)F)c3)c3c(c2)C(=O)NC3c2cc(F)ccc2Cl)O1 (stereo not shown) [Compound I-1359] | ≤ 100
37 | O=C(Cc1cc(F)ccc1C(F)(F)F)Nc1cc(Br)cc2c1C(c1cc(F)ccc1Cl)NC2=O (stereo not shown) [Compound I-560] | 1000 to 10000
38 | Cc1ccccc1C1NC(=O)c2cccc(NC(=O)c3nc(C)c4c(F)cc(F)cn34)c21 (stereo not shown) [Compound I-342] | 10000 to 100000
39 | O=C(Nc1cc(-c2ccc3ncnn3c2)nc2c1C(c1cc(F)ccc1Cl)NC2=O)c1cc(F)cc(C(F)(F)F)c1 (stereo not shown) [Compound I-1226] | ≤ 100
40 | O=C(Nc1cc(-c2cnn(-c3ccncn3)c2)cc2c1C(c1cc(F)ccc1Cl)NC2=O)c1cc(F)cc(C(F)(F)F)c1 (stereo not shown) [Compound I-1465] | ≤ 100

Now from value to compound:

Row | IC50 [nM] | Structure (SMILES)
41 | ≤ 100 | O=C(Nc1cc(-c2ccc3ncc(Cl)n3c2)cc2c1C(c1cc(F)ccc1Cl)NC2=O)c1cc(F)cc(C(F)(F)F)c1 (stereo not shown) [Compound I-1694]
42 | 100 to 500 | N#Cc1cc(NC(=O)N2C[C@H](O)c3cc(F)ccc32)c2c(c1)C(=O)N[C@H]2c1cc(F)ccc1Cl (single isomer, unassigned) [Compound I-2491]
43 | 1000 to 10000 | O=C(Nc1cc(CS(=O)(=O)c2ccccc2)cc2c1[C@@H](c1cc(F)ccc1Cl)NC2=O)c1cc(F)cc(C(F)(F)F)c1 [Compound I-1593]
44 | 1000 to 10000 | CCC[C@]1(O)CN(C(=O)Nc2cccc3c2[C@@H](c2cc(F)ccc2Cl)NC3=O)c2ccc(F)cc21 (single isomer, unassigned) [Compound I-2456]
45 | ≤ 100 | Cn1nc(C(F)(F)F)cc1-c1cc(NC(=O)c2cc(F)cc(C(F)(F)F)c2)c2c(c1)C(=O)NC2c1cc(F)ccc1Cl (stereo not shown) [Compound I-1865]
46 | 1000 to 10000 | O=C(Nc1cc(-c2ccc3ncnn3c2)cc2c1C(c1cc(F)ccc1Cl)NC2=O)c1nc2ccccc2s1 (stereo not shown) [Compound I-1631]
47 | 1000 to 10000 | CCC1CCCN1C(=O)Nc1cccc2c1C(c1cc(F)ccc1Cl)NC2=O (mixture of isomers) [Compound I-2395]
48 | 100 to 500 | O=C1N[C@@H](c2cc(F)ccc2Cl)c2c(NC(=O)N3C[C@H](O)c4cc(F)ccc43)cc(-c3cnn(C(F)F)c3)cc21 (single isomer, unassigned) [Compound I-2478]
49 | 10000 to 100000 | CN1CCCC[C@@H]1[C@@H]1NC(=O)c2cccc(NC(=O)c3cc(F)cc(C(F)(F)F)c3)c21 (racemic) [Compound I-1713]
50 | 10000 to 100000 | C[C@H](c1nn[nH]c1C(=O)Nc1cccc2c1[C@@H](c1cc(F)ccc1Cl)NC2=O)C(F)(F)F (single isomer, unassigned) [Compound I-2268]
51 | ≤ 100 | O=CNc1nc(-c2cc(NC(=O)c3cc(F)cc(C(F)(F)F)c3)c3c(c2)C(=O)NC3c2cc(F)ccc2Cl)ccc1O (stereo not shown) [Compound I-1552]
52 | 10000 to 100000 | O=C1NC(c2cc(F)ccc2Cl)c2c(NC(=O)N3CCc4cc(C(F)(F)F)ccc43)cccc21 (stereo not shown) [Compound I-2436]
53 | 10000 to 100000 | O=C1N[C@H](c2cc(F)ccc2Cl)c2c(NC(=O)N3C[C@H](CO)[C@@H](C(F)(F)F)C3)cccc21 (single isomer, unassigned) [Compound I-2278]
54 | 1000 to 10000 | O=C1NC(c2cc(F)ccc2Cl)c2c(NC(=O)C3CCCCC3)cc(-c3ccc4ncnn4c3)cc21 (stereo not shown) [Compound I-1549]
55 | 1000 to 10000 | N#Cc1cccc(S(=O)(=O)Cc2cc(NC(=O)c3cc(F)cc(C(F)(F)F)c3)c3c(c2)C(=O)N[C@@H]3c2cc(F)ccc2Cl)c1 [Compound I-1595]
56 | 100 to 500 | O=C(Nc1cc(-c2ccc3ncnn3c2)c(-c2ccc3ncnn3c2)c2c1C(c1cc(F)ccc1Cl)NC2=O)c1cc(F)cc(C(F)(F)F)c1 (stereo not shown) [Compound I-1802]
57 | 1000 to 10000 | O=C1N[C@@H](c2cc(F)ccc2Cl)c2c(N[C@@H]3CCOc4ccccc43)cc(-c3cnn(C(F)F)c3)nc21 [Compound I-2081]
58 | 1000 to 10000 | O=C(CCc1ccccc1)Nc1cc(-c2ccc3ncnn3c2)cc2c1C(c1cc(F)ccc1Cl)NC2=O (stereo not shown) [Compound I-1628]
59 | 10000 to 100000 | O=C1NC(c2cc(F)ccc2Cl)c2c(NC(=O)C3CCOCC3)cc(-c3ccc4ncnn4c3)cc21 (stereo not shown) [Compound I-1821]
60 | 500 to 1000 | O=C1N[C@@H](c2cc(F)ccc2Cl)c2c(NC(=O)N3C[C@H](O)c4ccc(F)cc43)cccc21 (stereo in doubt) [Compound I-2172]
61 | 10000 to 100000 | O=C1N[C@@H](c2cc(F)ccc2Cl)c2c(N[C@@H]3COCc4ccccc43)cc(Br)cc21 (racemic) [Compound I-1894]
62 | 10000 to 100000 | CN1CCN(C(=O)Nc2cc(Br)cc3c2[C@@H](c2cc(F)ccc2Cl)NC3=O)CC1 (single isomer, unassigned) [Compound I-2245]
63 | 10000 to 100000 | Cn1c(Cl)cc(C(=O)Nc2cc(Br)cc3c2[C@H](c2cc(F)ccc2Cl)NC3=O)cc1=O [Compound I-2095]
64 | 10000 to 100000 | CC[C@@H](CC(=O)Nc1cccc2c1[C@@H](c1cc(F)ccc1Cl)NC2=O)[C@H](C)C(F)(F)F (single isomer, unassigned) [Compound I-2337]

— patent US12581252B2, “Substituted pyrrolo[3,4-b]pyridines as PI3K-α inhibitors” (Relay Therapeutics, Inc., priority 2020, dated 2026)
